# From ChEMBL document CHEMBL5518248, “Design, Synthesis, and Biological Evaluation of Novel Arylomycins against Multidrug-Resistant Gram-Negative Bacteria” (J Med Chem, 2024)
# Columns and labels:
# Pseudomonas aeruginosa [1] = assay: Antibacterial activity against Pseudomonas aeruginosa T-2022 assessed as inhibition of bacterial growth measured after 18 to 20 hrs by broth microdilution method; type: functional; details: time 18-20 hrs
# Pseudomonas aeruginosa [2] = assay: Antibacterial activity against multi drug resistant Pseudomonas aeruginosa T-2022-D2-048 infected in cyclophosphamide-induced neutropenic thigh infection ICR mouse model assessed as reduction in log CFU at 12 mg/kg, iv measured after 24 hrs; type: functional
# [3] = AUC (0 to t) in Sprague-Dawley rat at 10 mg/kg, iv measured upto 24 hrs LC-MS/MS analysis; type: ADME, organism-based; details: Sprague-Dawley, in vivo
# [4] = AUC (0 to t) in Sprague-Dawley rat at 10 mg/kg, po measured upto 24 hrs LC-MS/MS analysis; type: ADME, organism-based; details: Sprague-Dawley, in vivo
# [5] = Tmax in Sprague-Dawley rat at 10 mg/kg, po measured upto 24 hrs LC-MS/MS analysis; type: ADME, organism-based; details: in vivo
# [6] = Cmax in Sprague-Dawley rat at 10 mg/kg, po measured upto 24 hrs LC-MS/MS analysis; type: ADME, organism-based; details: in vivo
# [7] = MRT in Sprague-Dawley rat at 10 mg/kg, iv measured upto 24 hrs LC-MS/MS analysis; type: ADME, organism-based; details: in vivo
# [8] = MRT in Sprague-Dawley rat at 10 mg/kg, po measured upto 24 hrs LC-MS/MS analysis; type: ADME, organism-based; details: in vivo
# [9] = Half life in Sprague-Dawley rat at 10 mg/kg, iv measured upto 24 hrs LC-MS/MS analysis; type: ADME, organism-based; details: in vivo
# [10] = Half life in Sprague-Dawley rat at 10 mg/kg, po measured upto 24 hrs LC-MS/MS analysis; type: ADME, organism-based; details: in vivo
# [11] = Clearance in Sprague-Dawley rat at 10 mg/kg, iv measured upto 24 hrs LC-MS/MS analysis; type: ADME, organism-based; details: in vivo
# [12] = Volume of distribution at steady state in Sprague-Dawley rat at 10 mg/kg, iv measured upto 24 hrs LC-MS/MS analysis; type: ADME, organism-based; details: in vivo, read-out: Vdss
# [13] = Oral bioavailability in Sprague-Dawley rat at 10 mg/kg measured upto 24 hrs LC-MS/MS analysis; type: ADME, organism-based; details: Sprague-Dawley, in vivo
# Escherichia coli [14] = assay: Antibacterial activity against Escherichia coli ATCC 35218 assessed as inhibition of bacterial growth measured after 18 to 20 hrs by broth microdilution method; type: functional; details: time 18-20 hrs
# Escherichia coli [15] = assay: Antibacterial activity against Escherichia coli 14-2 assessed as inhibition of bacterial growth measured after 18 to 20 hrs by broth microdilution method; type: functional; details: time 18-20 hrs
# Escherichia coli [16] = assay: Antibacterial activity against Escherichia coli 14-4 assessed as inhibition of bacterial growth measured after 18 to 20 hrs by broth microdilution method; type: functional; details: time 18-20 hrs
# Klebsiella pneumoniae [17] = assay: Antibacterial activity against Klebsiella pneumoniae 15-1 assessed as inhibition of bacterial growth measured after 18 to 20 hrs by broth microdilution method; type: functional; details: time 18-20 hrs
# Klebsiella pneumoniae [18] = assay: Antibacterial activity against Klebsiella pneumoniae 15-4 assessed as inhibition of bacterial growth measured after 18 to 20 hrs by broth microdilution method; type: functional; details: time 18-20 hrs
# Klebsiella pneumoniae [19] = assay: Antibacterial activity against Klebsiella pneumoniae 15-5 assessed as inhibition of bacterial growth measured after 18 to 20 hrs by broth microdilution method; type: functional; details: time 18-20 hrs
# Acinetobacter baumannii [20] = assay: Antibacterial activity against Acinetobacter baumannii 17-2 assessed as inhibition of bacterial growth measured after 18 to 20 hrs by broth microdilution method; type: functional; details: time 18-20 hrs
# Acinetobacter baumannii [21] = assay: Antibacterial activity against Acinetobacter baumannii 17-8 assessed as inhibition of bacterial growth measured after 18 to 20 hrs by broth microdilution method; type: functional; details: time 18-20 hrs
# Pseudomonas aeruginosa [22] = assay: Antibacterial activity against Pseudomonas aeruginosa 17-1 assessed as inhibition of bacterial growth measured after 18 to 20 hrs by broth microdilution method; type: functional; details: time 18-20 hrs
# Pseudomonas aeruginosa [23] = assay: Antibacterial activity against Pseudomonas aeruginosa 19-5 assessed as inhibition of bacterial growth measured after 18 to 20 hrs by broth microdilution method; type: functional; details: time 18-20 hrs
# HepG2 [24] = assay: Cytotoxicity against human HepG2 cells assessed as inhibition of cell growth incubated for 24 hrs by CCK8 method; type: functional, cell-based; details: HepG2, 24 h
# HepG2 [25] = assay: Cytotoxicity against human HepG2 cells assessed as inhibition of cell growth at 100 uM incubated for 24 hrs by CCK8 method relative to control; type: functional
# [26] = Cytotoxicity against HEK293T cells assessed as inhibition of cell growth incubated for 24 hrs by CCK8 method; type: toxicity, cell-based, HEK-293T; details: human
# [27] = Cytotoxicity against HEK293T cells assessed as inhibition of cell growth at 100 uM incubated for 24 hrs by CCK8 method relative to control; type: toxicity, cell-based, HEK-293T; details: human
# Jurkat [28] = assay: Cytotoxicity against human Jurkat cells assessed as inhibition of cell growth incubated for 24 hrs by CCK8 method; type: functional, cell-based
# Jurkat [29] = assay: Cytotoxicity against human Jurkat cells assessed as inhibition of cell growth at 100 uM incubated for 24 hrs by CCK8 method relative to control; type: functional
Compound,AUC(0-t) at 24 h [3],MRT [7],half-life [9],clearance [11],MIC (Escherichia coli [14]),MIC (Escherichia coli [15]),MIC (Escherichia coli [16]),MIC (Klebsiella pneumoniae [17]),MIC (Klebsiella pneumoniae [18]),MIC (Klebsiella pneumoniae [19]),MIC (Acinetobacter baumannii [20]),MIC (Acinetobacter baumannii [21]),MIC (Pseudomonas aeruginosa [22]),MIC (Pseudomonas aeruginosa [23]),IC50 (HepG2 [24]),inhibition at 100 µM (HepG2 [25]),IC50 at 24 h [26],"inhibition at 24 h, 100 µM [27]",IC50 (Jurkat [28]),inhibition at 100 µM (Jurkat [29]),further results
Cc1nc(-c2ccc(CSSC(C)(C)C)cc2)ncc1C(=O)N[C@@H](CCN)C(=O)N(C)[C@@H]1C(=O)N[C@@H](C)C(=O)N[C@H](C(=O)NCC#N)Cc2ccc(OCCN)c(c2)-c2cc1ccc2OCCN,142000 ng·h/mL,6.27 h,4.18 h,1.16 mL/min/kg,–,–,–,–,–,–,–,–,–,–,–,–,–,–,–,–,MIC (Pseudomonas aeruginosa [1]): 4 µg/mL; log CFU reduction (Pseudomonas aeruginosa [2]): 3.5 log CFU/g; AUC(0-t) at 24 h [4]: 70.1 ng·h/mL; Tmax [5]: 3.33 h; Cmax [6]: 11.5 ng/mL; MRT [8]: 5.63 h; half-life [10]: 2.83 h; Vd [12]: 0.435 L/kg; bioavailability [13]: 0.05%
CCCCSSCc1ccc(-c2ncc(C(=O)N[C@@H](CCN)C(=O)N(C)[C@@H]3C(=O)N[C@@H](C)C(=O)N[C@H](C(=O)NCC#N)Cc4ccc(OCCN)c(c4)-c4cc3ccc4OCCN)c(C)n2)cc1,46300 ng·h/mL,1.27 h,1.04 h,3.6 mL/min/kg,–,–,–,–,–,–,–,–,–,–,–,–,–,–,–,–,Vd [12]: 0.273 L/kg
Cc1nc(-c2ccc(CSSCC(C)C)cc2)ncc1C(=O)N[C@@H](CCN)C(=O)N(C)[C@@H]1C(=O)N[C@@H](C)C(=O)N[C@H](C(=O)NCC#N)Cc2ccc(OCCN)c(c2)-c2cc1ccc2OCCN.O=C(O)C(F)(F)F.O=C(O)C(F)(F)F.O=C(O)C(F)(F)F.O=C(O)C(F)(F)F,–,–,–,–,≤ 0.03 µg/mL,≤ 0.03 µg/mL,≤ 0.03 µg/mL,≤ 0.03 µg/mL,0.06 µg/mL,0.06 µg/mL,0.5 µg/mL,0.125 µg/mL,4 µg/mL,4 µg/mL,> 100 µM,-4.7%,> 100 µM,42.7%,> 100 µM,18.4%,–
CSSC(C)(C)c1ccc(-c2ncc(C(=O)N[C@@H](CCN)C(=O)N(C)[C@@H]3C(=O)N[C@@H](C)C(=O)N[C@H](C(=O)NCC#N)Cc4ccc(OCCN)c(c4)-c4cc3ccc4OCCN)c(C)n2)cc1.O=C(O)C(F)(F)F.O=C(O)C(F)(F)F.O=C(O)C(F)(F)F.O=C(O)C(F)(F)F,–,–,–,–,≤ 0.03 µg/mL,≤ 0.03 µg/mL,≤ 0.03 µg/mL,≤ 0.03 µg/mL,≤ 0.03 µg/mL,≤ 0.03 µg/mL,1 µg/mL,0.25 µg/mL,8 µg/mL,8 µg/mL,> 100 µM,-12.6%,> 100 µM,48.1%,> 100 µM,39.1%,–
CCCSSCc1ccc(-c2ncc(C(=O)N[C@@H](CCN)C(=O)N(C)[C@@H]3C(=O)N[C@@H](C)C(=O)N[C@H](C(=O)NCC#N)Cc4ccc(OCCN)c(c4)-c4cc3ccc4OCCN)c(C)n2)cc1,15300 ng·h/mL,0.44 h,0.37 h,10.8 mL/min/kg,–,–,–,–,–,–,–,–,–,–,–,–,–,–,–,–,Vd [12]: 0.285 L/kg
CCCCSSCc1ccc(-c2ncc(C(=O)N[C@@H](CCN)C(=O)N(C)[C@@H]3C(=O)N[C@@H](C)C(=O)N[C@H](C(=O)NCC#N)Cc4ccc(OCCN)c(c4)-c4cc3ccc4OCCN)c(C)n2)cc1.O=C(O)C(F)(F)F.O=C(O)C(F)(F)F.O=C(O)C(F)(F)F.O=C(O)C(F)(F)F,–,–,–,–,≤ 0.03 µg/mL,≤ 0.03 µg/mL,≤ 0.03 µg/mL,≤ 0.03 µg/mL,≤ 0.03 µg/mL,≤ 0.03 µg/mL,0.5 µg/mL,0.125 µg/mL,8 µg/mL,8 µg/mL,> 100 µM,-3.33%,> 100 µM,41%,> 100 µM,50.6%,–
Cc1nc(-c2ccc(SSC(C)(C)C)cc2)ncc1C(=O)N[C@@H](CCN)C(=O)N(C)[C@@H]1C(=O)N[C@@H](C)C(=O)N[C@H](C(=O)O)Cc2ccc(OCCN)c(c2)-c2cc1ccc2OCCN.O=C(O)C(F)(F)F.O=C(O)C(F)(F)F.O=C(O)C(F)(F)F.O=C(O)C(F)(F)F,–,–,–,–,≤ 0.03 µg/mL,≤ 0.03 µg/mL,0.06 µg/mL,≤ 0.03 µg/mL,≤ 0.03 µg/mL,≤ 0.03 µg/mL,0.5 µg/mL,1 µg/mL,32 µg/mL,16 µg/mL,> 100 µM,-4.95%,> 100 µM,26.1%,> 100 µM,44.8%,–
